According to publication PMC9694334, “Synthesis and Biological Evaluation of a Fused Structure of Indolizine and Pyrrolo[1,2-c]pyrimidine: Identification of Its Potent Anticancer Activity against Liver Cancer Cells” (Pharmaceuticals, 2022):

How the values were obtained:
[1] = tested on: HaCaT cells; experiment: Cell viability assay (MTS) in HaCaT cells; type: cell-based, human
Protocol: (§1) HepG2, Huh7, H1299, HT29, AGS and A549 cells were purchased from the Korean Cell Line Bank (Seoul, Korea) and HaCaT cells were obtained from Prof. Sohee Kwon (Yonsei University, Korea). Liver cancer cells (HepG2), human keratinocyte cells (HaCaT), and lung cancer cells (A549) were grown in DMEM high-glucose medium, liver cancer cells (Huh7) and non-small cell lung cancer cells (H1299) were grown in RPMI 1640, and gastric cancer cells (AGS) were grown in Coon’s modified F12 medium. All media were supplemented with 10% FBS, 100 Units/mL penicillin, and 100 μg/mL streptomycin. All cells were incubated at 37 °C, 5% CO2 and 95% humidity.
(§2) Cell viability assay was conducted using Cell Titer 96® AQueous One Solution Cell proliferation Assay kit (Promega, Madison, WI, USA). Five cancer cells and HaCaT cells were plated in 96-well microplates with growth medium for 24 h. When cell confluency reached ~30%, cells were treated with DMSO (vehicle) and test compounds. The medium and test compounds were replaced every 24 h. To measure cell viability, the cells were incubated with MTS solution for 1 h. The absorbance was measured by using Infinite M200 microplate reader (Tecan, Männedorf, Switzerland) at 490 nm.
(§3) Figure 2 Effect of 5r on cell viability in HepG2, Huh7, AGS, H1299, A549, HaCaT, NIH3T3, and HEK293T cells. (A–H) HepG2, Huh7, AGS, H1299, A549, HaCaT, NIH3T3, and HEK293T cells were cultured with 5r at the indicated concentrations for 72 h, and medium was replaced every 24 h with freshly added 5r. Cell viability was measured by MTS analysis (mean ± S.D., n = 5). * p < 0.05, ** p < 0.01, *** p < 0.001.

[2] = tested on: HepG2 cells; experiment: Cell viability assay (MTS) in HepG2 cells; type: cell-based; settings: Homo sapiens, MTS, mean, n = 5, 72 h for 5r (Figure 2)
Protocol: as §1, §2, §3

[3] = tested on: HepG2 cells; experiment: In vitro wound-healing assay in HepG2 cells; type: cell-based; settings: Figure 3
Protocol: The suppressive effect of 5r on cell migration was assessed through in vitro wound-healing assay. HepG2 and Huh7 cells were grown to approximately 100% confluence to form a monolayer in a 96-well microplate. Wounds were formed through 96-well wound maker (Essen BioScience, Ann Arbor, MI, USA). Then, growth medium was removed and washed out twice with phosphate-buffered saline (PBS) and incubated with 200 μL of DMEM and RPMI 1640 medium containing 5r or vehicle (DMSO). Images of the wound area were taken by using IncuCyte ZOOM (Essen BioScience, Ann Arbor MI, USA), and the percentage of wound closure was measured by using IncuCyte software.
Figure 3 Inhibitory effect of 5r on cell migration in HepG2 and Huh7 cells. (A,B) In vitro wound-healing assay was performed in HepG2 and Huh7 cells (mean ± S.D., n = 3). HepG2 and Huh7 cells were treated with the indicated concentrations of 5r, and time-lapse images were acquired every 2 h after wound infliction. (C,D) Representative images were taken at 0, 48, or 72 h following administration of 5r at the indicated concentrations.

[4] = tested on: A549 cells; experiment: Cell viability assay (MTS) in A549 cells; type: cell-based; settings: 72 h, MTS, Figure 2E
Protocol: as §1, §2, §3

[5] = tested on: NIH3T3 cells; experiment: Cell viability assay (MTS) in NIH3T3 cells; type: cell-based; settings: 72 h, Figure 2G
Protocol: as §2, §3

[6] = tested on: cleaved PARP; experiment: Western blot analysis of cleaved PARP in HepG2 cells; type: cell-based; settings: 24 h, Figure 4E,G
Protocol: For Western blot analysis, HepG2 and Huh7 cells were lysed with RIPA buffer (50 mM Tris-HCl, PH 7.4, 1% Nonidet P-40, 0.25% sodium deoxycholate, 150 mM NaCl, 1 mM EDTA, 1 mM Na3VO4, and protease inhibitor). Lysed samples were centrifuged at 13,000 RPM for 20 min at 4 °C to remove the cell debris, and equal amounts (60 μg protein/lane) of supernatant protein were divided by 4–12% Tris Glycine Precast Gel (KOMA BIOTECH, Seoul, Korea). Then, PVDF membranes (Millipore, Billerica, MA, USA) were used to transfer the separated proteins. Membrane blocking was performed by Tris-buffered saline with 0.1% Tween 20 (TBST) containing 5% bovine serum albumin (BSA) at room temperature for 50 min. The membranes were incubated with primary antibodies overnight at 4 °C with the indicated primary antibodies: anti-cleaved PARP (BD Biosciences) and anti-β-actin (Santa Cruz Biotechnology, Dallas, TX, USA). […] After 1 h, membranes were detected by using ECL Plus Western blotting detection system (GE Healthcare, Piscataway, NJ, USA).
Figure 4 Effect of 5r on activity of caspase-3 and cleavage of PARP in HepG2 and Huh7 cells. […] (E,F) Cells were cultured with 5r at the indicated concentrations for 24 h, and expression level of PARP, cleaved-PARP and β-actin were measured by Western blot analysis. […]

[7] = tested on: caspase-3; experiment: Caspase-3 activity assay in HepG2 cells; type: cell-based; settings: 3 µM 5r for 24 h, Figure 4A
Protocol: (§4) HepG2 and Huh7 cells were plated in 96-black-well plate to about 40% confluence, and then 5r was treated for 24 h. To assess activity of caspase-3, the growth medium was changed with 100 μL of PBS containing 1 μM caspase-3 substrate, NucView 488, and incubated at room temperature. After 20 min, 1 μM Hoechst 33342 was treated to stain the cells. Activity of caspase-3 was suppressed by Ac-DEVD-CHO, a selective caspase-3 inhibitor. FLUOstar Omega microplate reader (BMG Labtech, Ortenberg, Germany) was used to assess the fluorescence of NucView 488 and Hoechst, and Lionheart FX Automated Microscope (BioTek, Winooski, VT, USA) was used to acquire the fluorescence microscopy images.
(§5) Figure 4 Effect of 5r on activity of caspase-3 and cleavage of PARP in HepG2 and Huh7 cells. (A,B) HepG2 and Huh7 cells were incubated with 3 µM 5r for 24 h and then incubated with 1 µM caspase-3 substrate (green) and 1 µM Hoechst 33,342 (blue) for 20 min before image acquisition. (C,D) Cells were cultured with 5r at the indicated concentrations for 24 h and then 1 μM caspase-3 substrate was treated for 20 min. Caspase-3 was inhibited by 20 μM Ac-DEVD-CHO (mean ± S.D., n = 3). (E,F) Cells were cultured with 5r at the indicated concentrations for 24 h, and expression level of PARP, cleaved-PARP and β-actin were measured by Western blot analysis. […]

[8] = tested on: caspase-3; experiment: Caspase-3 activity assay in Huh7 cells; type: cell-based; settings: 3 µM 5r for 24 h, Figure 4B
Protocol: as §4, §5

Q: With N#Cc1c2c3cccn3c(-c3ccccc3O)nc2n2ccccc12 [Compound 5r, 5-(2-Hydroxyphenyl)pyrrolo[1′,2′:1,6]pyrimido[5,4-b]indolizine-12-carbonitrile] as the molecule, how does the “Effect on cell viability in non-cancerous HaCaT cells” value ([1]; 72 h, Figure 2F) read?
A: Its value is “weakly decreased cell viability”.

Q: What about the IC50 ([1]; Homo sapiens, mean, n = 5) of the same molecule?
A: Its IC50 is 6.91 µM.

Q: What about the IC50 [2] of the same molecule?
A: The IC50 was 0.22 µM.

Q: What about the “Effect on cell migration (wound closure) in HepG2 cells” value [3] of the same molecule?
A: The value was “significantly inhibited cell migration in a dose-dependent manner”.

Q: What about the “Effect on cell viability in A549 cells” value [4] of the same molecule?
A: The value was “weak effect”.

Q: And the “Effect on cell viability in non-cancerous NIH3T3 cells” value [5]?
A: The value was “weakly decreased cell viability”.

Q: And the “Expression level of cleaved PARP in HepG2 cells” value [6]?
A: Its value is “increased the expression level of cleaved PARP in a dose-dependent manner”.

Q: And the “Caspase-3 activity in HepG2 cells” value [7]?
A: The value was “potently increased caspase-3 activity”.

Q: And the “Caspase-3 activity in Huh7 cells” value [8]?
A: The value was “potently increased caspase-3 activity”.
